One may read the IC50 as the concentration at which inhibition is half-maximal.

We go through one molecule from article PMC12299847, “Macroalgae-Inspired Brominated Chalcones as Cosmetic Ingredients with the Potential to Target Skin Inflammaging” (Marine Drugs, 2025).

The subject of experiment [1] is iNOS protein levels in RAW264.7 macrophages. As to the kind of experiment: Western blot analysis of iNOS expression in LPS-stimulated macrophages. The class given is cell-based, murine. Conditions: for iNOS expression level: normalized against LPS condition. How it is done: To investigate the underlying mechanism of action of the most promising brominated chalcones (1 and 2), their effects on iNOS protein levels were assessed in LPS-stimulated macrophages at different time points (4, 6, and 24 h). The non-treated (NT) condition, consisting of macrophages stimulated with LPS but receiving no chalcone treatment, was used as the reference for maximal iNOS induction under inflammatory conditions and served as a positive control. The selected concentrations (7.5 μM and 15 μM) were selected based on chalcones 1 and 2 cytocompatibility (Figure 3) and efficacy in reducing NO production (Figure 4). Since NO production is a direct consequence of iNOS enzymatic activity, where the enzyme catalyzes the conversion of L-arginine to NO following inflammatory stimulation such as LPS, this provides a functional readout of iNOS expression and activity.
Here, we focused on validating iNOS expression at the protein level by western blot (Figure 6). While gene-level expression was not assessed, it is well established that LPS stimulation induces both iNOS transcription and translation in RAW 264.7 macrophages. Moreover, changes observed at the protein level are often closely associated with upstream transcriptional or translational modulation. Therefore, quantifying iNOS protein levels provides a biologically relevant measure of the chalcones’ inhibitory effects on this key inflammatory mediator.
The expression of the iNOS enzyme was analyzed by western blot. RAW264.7 macrophages were seeded at a density of 1 × 10^6 cells/well in a 6-well plate and incubated for 24 h at 37 °C in a humidified atmosphere containing 5% CO2. After incubation, cells were treated with 7.5 µM or 15 µM of the most promising chalcones (1 and 2) for 30 min, followed by the addition of LPS to have a final concentration of 100 ng/mL. Cells were then incubated for 4, 6, or 24 h. At each time point, cells were washed with PBS and lysed in RIPA buffer. The lysates were collected in Eppendorf tubes and kept on ice, with intermittent vortexing to ensure thorough lysis. Samples were centrifuged at 18,000× g for 16 min at 4 °C, and the supernatant was collected. Total protein concentration was determined using the Pierce™ BCA Protein Assay Kit (Thermo Scientific, 23225, Waltham, MA, USA), following the manufacturer’s instructions. Equal amounts of protein (25 µg) were loaded onto Bolt™ 8% Bis-Tris Mini Protein Gels (Invitrogen™, NW00087BOX, Waltham, MA, USA) and separated via electrophoresis. Proteins were then transferred onto nitrocellulose membranes (Invitrogen™, IB24002) using the iBlot® 2 dry transfer system (Invitrogen™, Waltham, MA, USA). After transfer, membranes were sectioned to separate the iNOS bands from those of the housekeeping protein GAPDH. Membranes were blocked for 1 h at room temperature in TBS-T containing 5% BSA and subsequently incubated overnight at 4 °C with primary antibodies against iNOS (Cell Signaling Technology, 16713120S, Danvers, MA, USA) or GAPDH (Abcam, ab181602, Cambridge, UK), diluted in TBS-T with 1% BSA. On the following day, membranes were washed three times with TBS-T and incubated for 1 h at room temperature with an HRP-conjugated secondary antibody (Cell Signaling Technology, 7074S) diluted in TBS-T with 1% BSA. After three additional washes, signal detection was performed using Clarity™ Western ECL Substrate (Bio-Rad, 1705061, Hercules, CA, USA), and chemiluminescent signals were acquired using the Odyssey FC imaging system (LI-COR, Lincoln, NE, USA). Densitometric analysis of iNOS bands was performed using Image Studio™ Software (version 5.2, LI-COR, Lincoln, NE, USA), with values normalized to the corresponding GAPDH bands.
Figure 6 iNOS expression level after treatment of 4, 6, and 24 h with chalcones 1 and 2 in macrophage cell line. Results are expressed as volume arbitrary unit (A). […]
Background: Immunoblotting shows a protein as a band on a membrane.

The subject of experiment [2] is NO production in LPS-stimulated RAW 264.7 macrophages. As to the kind of experiment: NO production (Griess assay) in LPS-stimulated macrophages. The class given is cell-based, murine. The note with it: Mus musculus, RAW264.7, 24 h, RAW 264.7, LPS 100 ng/mL, Griess. How it is done: The anti-inflammatory potential of chalcones 1–7 was evaluated in macrophages cultured in the presence or absence (control) of LPS, as depicted in Figure 4. Under basal conditions (unstimulated, control), macrophages produce low levels of nitrites (≈12%). […] Each chalcone was tested at concentrations previously established as non-cytotoxic in macrophages, trying to ensure that observed changes in NO levels were not due to reduced cell viability.
The production of NO was evaluated by measuring nitrite accumulation in culture supernatants using the previously described Griess assay. Cells were seeded at a concentration of 5.0 × 10^4 cells/mL in a 96-well plate (200 μL/well) and allowed to stabilize overnight at 37 °C. Afterwards, the cells were treated with different concentrations of compound solutions and pre-incubated for 1 h at 37 °C. Subsequently, an LPS in PBS solution was added to each well, achieving a final concentration of 100 ng/mL, and the plate was left to incubate for 24 h. An amount of 150 μL of the cell culture supernatant was then transferred to a fresh 96-well plate, and an equal amount of Griess reagent [comprising a 1:1 mixture of 1% (w/v) sulphanilamide in 5% (v/v) phosphoric acid and 0.1% (w/v) naphthylethylenediaminedihydrochloride] was added. Following a 30 min incubation at room temperature in the dark, the absorbance was recorded at 550 nm using a Biotek Synergy HT plate reader (Biotek, CA, USA). The nitrite concentration in the supernatants was determined by comparing the absorbance of each sample to a sodium nitrite standard curve. The results, obtained from at least three independent experiments performed in duplicate, were expressed as a percentage of NO production by cells versus chemical concentration, relative to LPS condition (100%).
Figure 4 NO production by macrophages treated with LPS (100 ng/mL) or not (control) in the presence of chalcones 1–7. Results are expressed as a percentage of NO production by cells treated with LPS (100 ng/mL). Each value represents the mean ± SEM of four independent experiments in duplicate. Statistical analysis: one ANOVA with Dunnett’s multiple comparisons test, where p< 0.05 was considered significant. *** p < 0.005, relative to the control, and ^# p < 0.05, ^## p < 0.01, ^### p < 0.0005, and ^#### p < 0.0001, relative to LPS condition.
A general note: Griess reagent forms a coloured azo dye with nitrite.

For the molecule `COc1cc(Br)c(/C=C/C(=O)c2cc(OC)c(OC)cc2Br)cc1OC` [Chalcone 1], the iNOS expression level came to 84.7% in experiment [1] (7.5 µM, 4 h); 14.3% in experiment [1] (7.5 µM, 24 h); 28.3% in experiment [1] (15 µM, 4 h); 13.5% in experiment [1] (15 µM, 6 h); 16.7% in experiment [1] (15 µM, 24 h). For the same molecule, the “maximum reduction of iNOS expression” value in experiment [1] (regardless of concentration (7.5 µM at 24 h, 15 µM at 6 h)) was “approximately 85%”. In addition, the IC50 in experiment [2] was 580 ± 120 nM.
